The text below walks through data of article PMC7374640 (Nature structural & molecular biology, 2020).

The target in test [1] is human insulin receptor, isoform B (hIR, IR-B) (human) (UniProt P06213).
The conditions of test [2]: cited from earlier work.
The subject of another test is insulin receptor. Particulars: cited from earlier work.

For the substance DOI with TyrB20 substitution (peptide), the bioactivity (insulin receptor activation assay), fold increase against DOI in test [1] was determined as 5 fold.

Take “HisA8 human insulin: human insulin with ThrA8 substituted by histidine (literature)”: the “increase in potency on substitution of human insulin ThrA8 by histidine” value in test [2] is recorded as “three-fold”.

Turning to “des-heptapeptide(B24-B30)-[GlyB23-α-carboxamide]insulin”, the “receptor affinity relative to native insulin (fold lower)” value in the test with insulin receptor is listed as ~ 500 fold.

On to “des-hexapeptide(B25-B30)-[PheB24-α-carboxamide]insulin”, for which the “receptor affinity relative to native insulin (fold lower)” value with insulin receptor is ~ 20 fold.

Take “des-pentapeptide(B26-B30)-[PheB25-α-carboxamide]insulin”: the “receptor affinity relative to native insulin (fold lower)” value in the test on insulin receptor is on record as “native-like”.
